Source: patent US20060188895A1, “Rapid prognostic assay for malignancies treated with epidermal growth factor receptor” (The Johns Hopkins University, priority 2004, published 2006)
Where “and” joins values, the source holds several entries; their conditions need not be identical. Identical values can stand only once.

Legend:
[1] = test system: HuCCT1 cells; test: cells; type: cell-based; details: Homo sapiens, HuCCT-1, MTT, 72 hours, 10% FBS, read-out: IC50 growth inhibition
[2] = test system: Cal27 cells; type: cell-based, human; details: CAL27 (EGF-inducible c-fos line); 0-10 μM, 72 hours, 10% FBS
[3] = test system: CAL27 xenograft tumors (c-fos mRNA); test: ex vivo molecular assay (c-fos) on FNA material; type: cell-based, mice; details: FNA material from seven CAL27 xenograft tumors; with EGF, 30 to 60 minutes
Protocol: (§1) FNAs on mice were performed according to standard cytopathologic practice under inhaled general anesthesia (isofluorane) using 10 cc syringes and 25-gauge needles. During each FNA procedure the first pass was smeared onto glass slides and used for morphologic analysis, (DiffQuik™ and Papanicoloau), and the second and third passes for RNA extraction. Eighteen A431 tumors, fourteen CAL27 tumors, eighteen HN11 tumors, fourteen HuCCT1 tumors, and sixteen Hep2 tumors were tested. FNAs were performed at baseline and after 14 days of therapy for each of the tumors. Tumor biopsies on patients were performed following an ultrasonographic-guided, FNA-assisted methodology, with on-site cytopathologic assessment of tissue adequacy at baseline and after 28 days of therapy.
In vitro RNA extraction was performed on non-confluent cells after treatment. […]
(§2) Quantitative PCR was performed on an MX3000p thermal cycler (Stratagene) using SYBR green dye method to track the progress of the reactions with ROX dye added as reference. […] The geometric mean of the Cts of each of the housekeeping genes, and a change in threshold cycle (delta Ct), between conditions were calculated (dCtHouskeeping=(CtHPRT*CtUBC*CtSDHA)control−(CtHPRT*CtUBC*CtSDHA)exp). The change in threshold cycle for the target gene was calculated directly from Ct under each condition (dCttarget=(Cttarget)control−(Cttarget)exp). […]

[4] = test system: A431 cells (c-fos mRNA); test: in vitro c-fos mRNA expression by quantitative RT-PCR; type: cell-based, human
Protocol: Five cell lines were used: A431, Cal27, HN11, HuCCT1, and Hep2. […] The cell lines were grown in 6-well plates with DMEM supplemented with 10% fetal bovine serum (FBS) and penicillin/streptomycin. […] The cells were incubated for 1 hour, media was aspirated, and RNA collected by direct in-well lysis with 0.5 mL of RLT (Qiagen).
In vitro RNA extraction was performed on non-confluent cells after treatment. Wells were washed with PBS and RLT lysis buffer was added. […] Total RNA was extracted using the RNeasy™ Mini Kit (Qiagen, Valencia, Calif.). RNA was transcribed into cDNA by reverse transcription by priming with random hexamers (M-MLTV manufactured by Promega located in Madison, Wis.). The excess hexamers were removed using a column-based clean-up kit (Qiagen).
Quantitative PCR was performed on an MX3000p thermal cycler (Stratagene) using SYBR green dye method to track the progress of the reactions with ROX dye added as reference. Beta-Globin DNA specific primers were used to test DNA contamination for each sample type. […] The geometric mean of the Cts of each of the housekeeping genes, and a change in threshold cycle (delta Ct), between conditions were calculated (dCtHouskeeping=(CtHPRT*CtUBC*CtSDHA)control−(CtHPRT*CtUBC*CtSDHA)exp). The change in threshold cycle for the target gene was calculated directly from Ct under each condition (dCttarget=(Cttarget)control−(Cttarget)exp).

[5] = test system: Hep2 cells; test: cells; type: cell-based; details: Homo sapiens, HEp-2, MTT, 72 hours, 10% FBS, read-out: IC50 growth inhibition
[6] = test system: HN11 cells; type: cell-based, human; details: HN11 (EGF-inducible c-fos line); 0-10 μM, 72 hours, 10% FBS
[7] = test system: HuCCT1 cells (c-fos mRNA); test: in vitro c-fos mRNA expression by quantitative RT-PCR; type: cell-based, human; details: for c-fos levels with time compared to baseline: 24-hour exposure
Protocol: (§3) Five cell lines were used: A431, Cal27, HN11, HuCCT1, and Hep2. HN11 was a gift from Dr David Sidranski's laboratory at Johns Hopkins University (Baltimore, Md.), and A431, Cal27, HuCCT1, and Hep2 were obtained from the American Tissue Culture Collection (Manassas, Va.). A431 is a squamous cell carcinoma, Cal27, HN11 and Hep2 are derived from head and neck squamous carcinomas, and HuCCT1 is a cholangiocarcinoma. The cell lines were grown in 6-well plates with DMEM supplemented with 10% fetal bovine serum (FBS) and penicillin/streptomycin. […] The cells were incubated for 1 hour, media was aspirated, and RNA collected by direct in-well lysis with 0.5 mL of RLT (Qiagen). […] IN VITRO GROWTH INHIBITION STUDIES
(§4) In vitro RNA extraction was performed on non-confluent cells after treatment. Wells were washed with PBS and RLT lysis buffer was added. Two passes from the FNA were put in lysis buffer (Mini Rneasy manufactured by Qiagen) loaded onto a column, washed and eluted into 50 μl TE pH8. Total RNA was extracted using the RNeasy™ Mini Kit (Qiagen, Valencia, Calif.). RNA was transcribed into cDNA by reverse transcription by priming with random hexamers (M-MLTV manufactured by Promega located in Madison, Wis.). The excess hexamers were removed using a column-based clean-up kit (Qiagen).
(§5) Quantitative PCR was performed on an MX3000p thermal cycler (Stratagene) using SYBR green dye method to track the progress of the reactions with ROX dye added as reference. Beta-Globin DNA specific primers were used to test DNA contamination for each sample type. Three housekeeping genes (HPRT, UBC and SDHA) were run in parallel with test genes. The amount of change in the target gene between the control and experimental conditions was found by comparing the threshold cycle (Ct) of the target gene to the geometric mean of the threshold cycles of the housekeeping genes. The geometric mean of the Cts of each of the housekeeping genes, and a change in threshold cycle (delta Ct), between conditions were calculated (dCtHouskeeping=(CtHPRT*CtUBC*CtSDHA)control−(CtHPRT*CtUBC*CtSDHA)exp). The change in threshold cycle for the target gene was calculated directly from Ct under each condition (dCttarget=(Cttarget)control−(Cttarget)exp). The efficiency of the […] raised to its dCt gave a ratio between the control and experimental conditions normalized to the housekeeping genes (Ratio=ETarget^dCtTarget/EHousekeeping^dctHousekeeping, where E=Primer efficiency, and Ct=Threshold cycle).

[8] = test system: Hep2 cells (c-fos mRNA); test: as above; type: cell-based, human; details: for c-fos levels with time compared to baseline: 24-hour exposure
Protocol: as §3, §4, §5

[9] = test system: HN11 cells (c-fos mRNA); test: as above; type: cell-based, human; details: for c-fos after longer exposure: 24-hour exposure
Protocol: as §3, §4, §5

[10] = test system: Cal27 cells (c-fos mRNA); test: as above; type: cell-based, human; details: for c-fos after longer exposure: 24-hour exposure
Protocol: as §3, §4, §5

[11] = test system: Hep2 xenograft tumors; test: in vivo growth inhibition and tumor c-fos, xenograft; design: species or system athymic nude mice
Protocol: (§6) Five groups of 14-16 six-week-old female athymic nude mice (Harlan, Ind., US) were used. 1.5-5×10^6 A431, CAL27, HN11, HuCCT1, and Hep2 cells were injected subcutaneously in each flank. […].
as §1, §4, §5

[12] = test system: HN11 xenograft tumors; test: as above; design: species or system athymic nude mice
Protocol: as §6, §1, §4, §5

[13] = test system: CAL27 xenograft tumors; test: as above; design: species or system athymic nude mice
Protocol: as §6, §1, §4, §5

[14] = test system: c-fos in patient tumor samples; test: c-fos in paired patient tumor samples; type: in vivo, patients
Protocol: as §1, with “therapy. […]” for “therapy.”
as §2

[15] = test system: metastatic or inoperable malignancy; test: clinical response of patients treated with gefitinib; type: in vivo; details: five patients; 500 mg daily; 2, 4, 2, 2 and 5+ 1-month cycles
From the text: Patients were required to be 18 years of age or older, and have histologically documented metastatic or inoperable malignancy amenable to sequential biopsies, and for which there was no known curative or standard palliative regimen (or failure of such regimens have occurred). […] The scientific review board of our institution granted protocol approval and patients were required to provide written informed consent prior to enrollment into the study.

[16] = test system: Ki67 proliferation index in patient tumor samples; test: Ki67 proliferation index in paired patient tumor samples (immunohistochemistry); type: in vivo, patients; details: patient #3; 500 mg/day (FIG. 7 legend)
Protocol: FNAs on mice were performed according to standard cytopathologic practice under inhaled general anesthesia (isofluorane) using 10 cc syringes and 25-gauge needles. During each FNA procedure the first pass was smeared onto glass slides and used for morphologic analysis, (DiffQuik™ and Papanicoloau), and the second and third passes for RNA extraction. […] FNAs were performed at baseline and after 14 days of therapy for each of the tumors. Tumor biopsies on patients were performed following an ultrasonographic-guided, FNA-assisted methodology, with on-site cytopathologic assessment of tissue adequacy at baseline and after 28 days of therapy.
Core biopsies from patients were processed using standard procedures (formalin-fixed, and paraffin embedded). Five-micron sections were used for Ki67 staining that was performed following the manufacturer's instructions (M7187 manufactured by DAKO located in Carpinteria, Calif.).

[17] = test system: HuCCT1 xenograft tumors; test: in vivo growth inhibition and tumor c-fos, xenograft; design: species or system athymic nude mice
Protocol: as §6, §1, §4, §5

[18] = test system: A431 xenograft tumors; test: as above; design: species or system athymic nude mice
Protocol: as §6, §1, §4, §5

[19] = 50 mgr/kg IP once a day for 14 days
[20] = day 14 treated vs control, P<0.05
[21] = 10 μM, 1-hour exposure, with EGF
[22] = 100 mgr/kg IP once a day for 14 days
[23] = EGF 100 ng/mL, normalized to media

Q: Which IC50 [1] does the source give for `C#Cc1cccc(Nc2ncnc3cc(OCCOC)c(OCCOC)cc23)c1` [erlotinib] here?
A: The IC50 was greater than 10 µM.

Q: And the “in vitro sensitivity (growth inhibition, MTT)” value [2]?
A: Its value is “high”.

Q: And the “effect on EGF-induced c-fos upregulation” value [3]?
A: The value was “abrogation of this response”.

Q: And the “c-fos after longer exposure” value ([4]; 24-hour exposure)?
A: The value was “lasting c-fos downregulation”.

Q: What about the IC50 [5] of the same compound?
A: Its IC50 is greater than 10 µM.

Q: What about the “in vitro sensitivity (growth inhibition, MTT)” value [6] of the same compound?
A: The value was “high”.

Q: And the “c-fos levels with time compared to baseline” value [7]?
A: The value was “minimally increased”.

Q: And the “c-fos levels with time compared to baseline” value [8]?
A: Its value is “minimally increased”.

Q: And the “c-fos after longer exposure” value [9]?
A: The value was “lasting c-fos downregulation”.

Q: And the “c-fos after longer exposure” value [10]?
A: The value was “lasting c-fos downregulation”.

Q: And the tumor growth response [11, 19]?
A: Its tumor growth response is “no response”.

Q: And the tumor c-fos levels ([11]; 14 days of therapy)?
A: Its tumor c-fos levels is “unchanged”.

Q: And the tumor growth [12, 19]?
A: The tumor growth was “growth arrest”.

Q: What about the “effect on progressive increase in tumor c-fos expression” value (“effect on progressive increase” for short) [12, 20] of the same compound?
A: Its value is “significantly abrogate”.

Q: What about the tumor growth [13, 19] of the same compound?
A: The tumor growth was “growth arrest”.

Q: What about the “effect on progressive increase” value ([13]; day 14 treated vs control, P=0.07) of the same compound?
A: The value was “significantly abrogate”.

Q: Which change in c-fos ([14]; patient #3, 500 mg/day (FIG. 7 legend)) does the source give for `COc1cc2ncnc(Nc3ccc(F)c(Cl)c3)c2cc1OCCCN1CCOCC1` [gefitinib] here?
A: The change in c-fos was “increase”.

Q: And the “tumor c-fos after 28 days, of baseline values” ([14]; two patients with decrease, 500 mg daily)?
A: Its value is 56% and 37%.

Q: And the objective response [15]?
A: Its objective response is “No objective, confirmed responses”.

Q: What about the “c-fos levels with time compared to baseline” value [7] of the same compound?
A: Its value is “minimally increased”.

Q: And the “effect of drug alone on c-fos levels” value ([7]; without EGF, 1 hour)?
A: Its value is “no effect”.

Q: And the “c-fos levels with time compared to baseline” value [8]?
A: Its value is “minimally increased”.

Q: And the “effect of drug alone on c-fos levels” value ([8]; without EGF, 1 hour)?
A: Its value is “no effect”.

Q: And the “effect on EGF-induced c-fos increment” value [9, 21]?
A: The value was “abrogated”.

Q: And the “c-fos after longer exposure” value [9]?
A: Its value is “lasting c-fos downregulation”.

Q: And the “effect of drug alone on c-fos levels” value ([9]; without EGF, 1 hour)?
A: The value was “decreased c-fos levels”.

Q: And the “effect on EGF-induced c-fos increment” value [10, 21]?
A: The value was “abrogated”.

Q: And the “c-fos after longer exposure” value [10]?
A: Its value is “lasting c-fos downregulation”.

Q: And the “effect of drug alone on c-fos levels” value ([10]; without EGF, 1 hour)?
A: The value was “decreased c-fos levels”.

Q: And the “reduction of Ki67” value [16]?
A: Its value is 45%.

Q: And the tumor growth response [17, 22]?
A: Its tumor growth response is “no response”.

Q: And the tumor c-fos levels ([17]; 14 days of therapy)?
A: The tumor c-fos levels was “unchanged”.

Q: What about the tumor growth [18, 22] of the same compound?
A: Its tumor growth is “growth arrest”.

Q: And the “effect on progressive increase” value [18, 20]?
A: The value was “significantly abrogate”.

Q: What does the source list for “EGF: human epidermal growth factor 100 ng/mL (EGF; Sigma), EGFR ligand used as stimulus”?
A: c-fos mRNA level after brief exposure to EGF [4, 23]: 126 fold; c-fos increase upon exposure to EGF [7, 23]: 3.6 fold; c-fos increase upon exposure to EGF [8, 23]: 4.1 fold; c-fos mRNA level after brief exposure to EGF [9, 23]: 86 fold; c-fos mRNA level after brief exposure to EGF [10, 23]: 151 fold
